Reference: patent US8637574B2, “Salts of 3-pentylphenylacetic acid and pharmaceutical uses thereof” (priority 2009, dated 2014)
Structures can show the parent of a compound that is named as a salt.

How the values were obtained:
[1] = tested on: PGE2; assay: LPS-induced inflammation in the rat air-pouch model (PGE2 in pouch exudates by ELISA); type: in vivo, rats; conditions: two hours after administration of LPS (FIG. 3)
Text: LPS-induced inflammation in the rat air-pouch model is believed to mimic the pathological process occurring in joint diseases such as arthritis. This is because the connective tissues formed along the air pouch are similar to those found in chronic joint diseases. LPS-induced inflammation and chronic joint diseases share other features, including markedly elevated PGE2, neutrophil infiltration, cytokine formation, and tissue damage. An air cavity was produced at day −6 by subcutaneous injection of 20 ml of sterile air into the intrascapular area of the back of male Lewis rats (175-200 g). An additional 10 ml of air was injected into the cavity at day −3 to keep the space open. At day 0, Compound I was administered intravenously and one hour later lipopolysaccharide (LPS: 2.5 ml, 2 μg/ml in PBS) was injected into the pouch to produce an inflammatory reaction. Two hours after treatment with LPS, animals were euthanized by CO2 asphyxiation and 5 ml of PBS/heparin (10 U/ml)/indomethacin (36 μg/ml) was injected into the pouch. The pouch fluid was collected and PGE2 was determined in the pouch exudates by ELISA.

[2] = tested on: doxorubicin-induced nephrotoxicity model; assay: Doxorubicin-induced nephrotoxicity model (serum albumin, serum creatinine, kidney histology); type: in vivo, mice
Procedure: C57BI/6 mice (6-10 week-old) were treated with Compound I prophylacticly from day −3 to day 10 or treated therapeutically from day 1 to 10. Nephrotoxicity was induced by an intravenous injection of 10 mg/kg of doxorubicin at day 0. Serum albumin and creatinine were monitored at days 4, 7, 9 and 11.

[3] = Physical properties of the salt and the free acid (hygroscopicity, water solubility); type: physicochemical
[4] = tested on: RAW264.7 (macrophage-like) cells; assay: Nitric oxide production in LPS/interferon-stimulated RAW264.7 cells (Griess reagent); type: cell-based; conditions: 1 μg/ml LPS and 0.5 ng/ml interferon, 16 hours, dose dependent
Procedure: The effect of Compound I on NO production was undertaken in RAW264.7 (macrophage-like) cells. RAW264.7 cells were cultured with 1 μg/ml of LPS and 0.5 ng/ml of interferon in presence or absence of the compound for 16 hours in a humidified atmosphere of 95% air-5% carbon dioxide at 37° C. Nitric oxide measurement in the culture medium was measured using the Griess reagent after an incubation of 30 minutes at room temperature. The absorbance at 548 nm was read and compared with standard solutions of NaNO2. Cell viability was assessed with the addition of 50 μl of […]. After an incubation of 4 hours, the medium was removed and 150 μl of DMSO was added to dissolve the crystals. The optical density of each sample was read at 570 nm against a blank prepared from cell-free wells.

[5] = tested on: ⅚ nephrectomized (Nx) rat model; assay: Kidney protection in ⅚ nephrectomized rat model (GFR, creatinine clearance); type: in vivo; conditions: Nx rats over treatment period; 50% deterioration in Nx control rats (FIG. 5)
Text: Male 6 week-old Wistar rats were subjected to ⅚ nephrectomy or sham operations. Under fluothane anesthesia, renal ablation was achieved by removing two-thirds of the left kidney followed by a right unilateral nephrectomy 7 days later. Sham rats underwent exposition of the kidneys and removal of the perirenal fat. Twenty-one days after the first operation, rats were randomized in the study by their reduced glomerular filtration rate (GFR) of creatinine indicating a dysfunction of the kidney. Animals that underwent the sham operation were given vehicle (saline) and were used as controls. Nx animals were divided in groups receiving the vehicle or Compound I. Saline or Compound I was given by gastric gavage once daily up to the sacrifice. GFR was measured every three weeks in order to assess the severity of this end-stage renal disease model. Rats were sacrificed at day 190.

For COc1ccc2c(c1)c(CC(=O)O)c(C)n2C(=O)c1ccc(Cl)cc1 [indomethacin], which “inhibition of PGE2” value [1] is on record?
Its value is “inhibition”.

Which “kidney lesions induced by doxorubicin alone (histological score)” value ([2]; doxorubicin 10 mg/kg i.v. day 0, mice, day 7 and 11) does the source give for COc1cccc2c1C(=O)c1c(O)c3c(c(O)c1C2=O)C[C@@](O)(C(=O)CO)C[C@@H]3O[C@H]1C[C@H](N)[C@H](O)[C@H](C)O1 [Doxorubicin, doxorubicin, reference compound] here?
The value was “significant kidney lesions”.

What does the source list for CCCCCc1cccc(CC(=O)O)c1 [Compound I, sodium salt of 3-pentylphenylacetic acid]?
kidney lesions at the tubular level induced by doxorubicin (histological score) ([2]; prophylactic (pre-doxorubicin) and therapeutic (post-doxorubicin) treatments, mice (FIG. 9)): reduce the kidney lesions; protection of kidney against doxorubicin toxicity (histological micrographs) ([2]; prophylactic or therapeutic treatment, mice (FIG. 10)): protects kidney against doxorubicin toxicity; decrease of serum albumin induced by doxorubicin ([2]; prophylactic treatment day −3 to day 10, oral, mice (FIG. 7)): inhibits; increase of serum creatinine induced by doxorubicin ([2]; prophylactic treatment day −3 to day 10, oral, mice (FIG. 8)): inhibits; increase of serum creatinine level induced by doxorubicin ([2]; therapeutic treatment day 1 to 10, oral, mice (FIG. 8)): inhibits; hygroscopicity [3]: not hygroscopic; water solubility [3]: very water soluble; inhibition of NO production [4]: about 50%; improvement of GFR compared to the initial GFR (before treatment) at day 21 [5]: 50%
